For the experiment, the target named is T1, recombinant human ALK5 (TGF-βR1) protein (Homo sapiens, UniProt P36897).
T1 construct: purchased Life Technologies PR9075A
T1 sequence (P36897 34-503): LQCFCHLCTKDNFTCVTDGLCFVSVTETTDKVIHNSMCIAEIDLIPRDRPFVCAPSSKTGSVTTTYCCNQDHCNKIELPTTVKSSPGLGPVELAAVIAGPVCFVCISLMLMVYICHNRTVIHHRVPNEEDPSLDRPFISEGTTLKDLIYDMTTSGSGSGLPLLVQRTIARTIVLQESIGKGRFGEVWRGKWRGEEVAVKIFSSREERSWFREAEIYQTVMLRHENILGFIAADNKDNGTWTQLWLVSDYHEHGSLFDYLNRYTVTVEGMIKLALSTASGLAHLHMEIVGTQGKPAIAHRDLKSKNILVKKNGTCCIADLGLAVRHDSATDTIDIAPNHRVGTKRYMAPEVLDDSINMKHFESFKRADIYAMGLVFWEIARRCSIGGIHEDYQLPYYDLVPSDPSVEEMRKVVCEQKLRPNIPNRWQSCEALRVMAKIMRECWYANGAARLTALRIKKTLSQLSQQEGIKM
As to the kind of experiment: Biochemical ALK5 (TGF-βR1) assay to measure pKi (LANCE Ultra ULight kinase assay). The following applies: apparent pKi from pIC50 by Cheng-Prusoff, read-out: ALK5 pKi (converted). As for the experimental part:
The assays were performed in a 384-well plate (24 columns×16 wells/rows). An Echo® 550 Liquid Handler (Labcyte) was used to prepare various intermediate concentrations of compounds of the present disclosure in 100% DMSO. From the intermediate concentrations, a range of concentrations (from 10 μM to 25 pM corresponding to volumes up to 105 nL) were prepared and ejected into a final assay plate to be used to create individual dose response curves for each of the subject compounds. To a separate column within the assay plate, 105 nL of DMSO in each well was used to establish a maximum assay signal.
With a multidrop dispenser, 8 μL of enzyme mixture (1.25× final) was added to each well. […] The plate was then sealed with an adhesive seal and allowed to equilibrate for 60 minutes at room temperature.
Next, 2 μL of 125 μM ATP (5× final, 125 μM ATP prepared in assay buffer with 2 mM DTT) was added to the incubated mixtures, covered with a MicroClime® Environmental Lid (Product No. LLS-0310, Labcyte) and immediately transferred to 37° C. The reactions were allowed to proceed at 37° C. for 60 minutes before terminating with the addition of 10 μL of detection antibody (LANCE® (lanthanide chelate excite) Ultra Europium-anti-phospo-DNA Topoisomerase 2-alpha (Thr1342)) in detection mixture (12 mM EDTA, 4 nM detection antibody prepared in detection buffer (50 mM Tris-HCl, 150 mM NaCl, 0.5% BSA (Fraction V), pH 7.0)) at room temperature. The plate was then read on a Perkin Elmer EnVision Plate Reader using europium specific reader settings with excitation and emission wavelengths set to 320 or 340 nm and 665 nm, respectively.
For dose-response analyses, percent inhibition versus compound concentrations were plotted, and pIC50 values were determined from a 4-parameter robust fit model with GraphPad Prism V5 Software (GraphPad Software, Inc., La Jolla, Calif.). This model obtains pIC50 values by fitting the sigmoidal dose-response (variable slope) equation to the data. Results were expressed as pIC50 (negative logarithm of IC50) and subsequently converted to pKi (negative logarithm of dissociate constant, K) using the Cheng-Prusoff equation. The higher the value of pKi (lower value of Ki), the greater the inhibition of ALK5 activity.
(Time-resolved FRET reads energy transfer from a long-lived donor to a nearby acceptor.)

On to `Cc1cccc(-c2[nH]cnc2-c2ccc3ncc(-c4ncc(C(=O)OC5CCNCC5)s4)cc3c2)n1` [Compound 1022, piperidin-4-yl 2-(6-(5-(6-methylpyridin-2-yl)-1H-imidazol-4-yl)quinolin-3-yl)thiazole-5-carboxylate], for which the Ki is 39.8 to 316 pM.

`Cc1cccc(-c2[nH]ncc2-c2ccc3nccc(C(=O)O[C@H]4CC[C@](C)(N)CC4)c3c2)n1` [Compound 1135, (4-amino-4-methyl-cyclohexyl) 6-[5-(6-methyl-2-pyridyl)-1H-pyrazol-4-yl]quinoline-4-carboxylate]: the Ki is 3980 to 31600 pM.

With `CCOC(=O)[C@H](C)NP(=O)(OCc1cnc2ccc(-c3cn[nH]c3-c3cccc(C)n3)nc2c1)Oc1ccccc1` (stereo partly drawn) [Compound 464, ethyl (2S)-2-[[[6-[5-(6-methyl-2-pyridyl)-1H-pyrazol-4-yl]-1,5-naphthyridin-3-yl]methoxy-phenoxy-phosphoryl]amino]propanoate], the Ki was 39.8 to 316 pM.

Consider `Cc1cccc(-c2n[nH]cc2-c2ccc3nccc(C(=O)NCCN4CCN(C(C)C)CC4)c3n2)n1` [Compound 808, N-[2-(4-isopropylpiperazin-1-yl)ethyl]-6-[3-(6-methyl-2-pyridyl)-1H-pyrazol-4-yl]-1,5-naphthyridine-4-carboxamide], for which the Ki was 3980 to 31600 pM.

As to `Cc1cccc(-c2n[nH]cc2-c2ccc3nccc(C(=O)NCN4CCOCC4)c3n2)n1` [Compound 807, 6-[3-(6-methyl-2-pyridyl)-1H-pyrazol-4-yl]-N-(morpholinomethyl)-1,5-naphthyridine-4-carboxamide], the Ki is 398 to 3160 pM.

In the case of `Cc1cccc(-c2[nH]cnc2-c2ccc3ncc(N4CCC(NCCSC(CCO)C(=O)O)C4)cc3c2)n1` (centres unmarked) [Compound 720, 4-hydroxy-2-[2-[[1-[6-[5-(6-methyl-2-pyridyl)-1H-imidazol-4-yl]-3-quinolyl]pyrrolidin-3-yl]amino]ethylsulfanyl]butanoic acid], the Ki was 39.8 to 316 pM.

Regarding `Cc1cccc(-c2[nH]cnc2-c2ccc3ncc(-c4csc(C(=O)OC[C@H]5CC[C@H](N)CC5)c4)cc3c2)n1` [Compound 1245, (4-aminocyclohexyl)methyl 4-[6-[5-(6-methyl-2-pyridyl)-1H-imidazol-4-yl]-3-quinolyl]thiophene-2-carboxylate], the Ki is 39.8 to 316 pM.

In the case of `Cc1cccc(-c2n[nH]cc2-c2ccc3nccc(C(=O)NCCCN4CCOCC4)c3n2)n1` [Compound 803, 6-[3-(6-methyl-2-pyridyl)-1H-pyrazol-4-yl]-N-(3-morpholinopropyl)-1,5-naphthyridine-4-carboxamide], the Ki is 398 to 3160 pM.

The record behind these values is US11590116B2 (THERAVANCE BIOPHARMA R&D IP, LLC, priority 2019, dated 2023).
